Source: patent US8912179B2, “Heterocyclyl compounds as histamine H3 receptor ligands” (Suven Life Sciences Limited, priority 2010, dated 2014)
Counter-ions that a name gives are not always drawn.

biological target: Histamine H3 receptor (UniProt Q9Y5N1); test: Binding assay for human or rat histamine H3 receptor ([3H] R-α-methylhistamine); settings: [3H] R-α-methylhistamine 3.0 nM; rat brain frontal cortex or recombinant human receptor in CHO cells (not specified which)
Method: Compounds can be evaluated according to the following procedures.
• Receptor source: Rat brain frontal cortex or recombinant human cDNA expressed in CHO cells • Radioligand: [^3H] R-α-methylhistamine • Final ligand concentration—[3.0 nM] • Non-specific determinant: R-α-methylhistamine (100 uM) • Reference compound: R-α-methylhistamine • Positive control: R-α-methylhistamine Incubation Conditions:
Increasing concentrations of test compounds or standard were incubated with membrane receptors and radioligand in 5 mM MgCl2 and 50 mM TRIS-HCl (pH 7.4) for 60 minutes at room temperature. The reaction was terminated by rapid vacuum filtration onto the glass fiber filters. Radioactivity trapped onto the filters was determined and compared to the control values in order to ascertain any interactions of the test compound(s) with either cloned human or rat receptor binding site.

| Ki [nM] | SMILES |
| --- | --- |
| 5.43 | O=C(C1CC1)N1CCc2nc(OC3CCN(C4CC4)CC3)sc2C1 [Example 10, Cyclopropyl-[2-(1-cyclopropyl-piperidin-4-yloxy)-6,7-dihydro-4H-thiazolo[5,4-c]pyridin-5-yl]-methanone tartrate] |
| 7.4 | O=S(=O)(c1ccccc1F)N1CCc2nc(OC3CCN(C4CCC4)CC3)sc2C1 [Example 20, 2-(1-Cyclobutyl-piperidin-4-yloxy)-5-(2-fluoro-benzenesulfonyl)-,6,7-dihydro-4H-thiazolo[5,4-c]pyridine tartrate] |
| 15.6 | CC(C)N1CCC(Oc2nc3c(s2)CCN(C(=O)C2CC2)CC3)CC1 [Example 34, Cyclopropyl-[2-(1-isopropyl-piperidin-4-yloxy)-4,5,7,8-tetrahydro-thiazolo[5,4-d]azepin-6-yl]-methanone tartrate] |
| 2 | O=C(C1CC1)N1CCc2nc(OC3CCC(C4CCC4)CC3)sc2CC1 (stereo not shown) [Example 2, [2-(4-Cyclobutyl-cyclohexyloxy)-4,5,7,8-tetrahydro-thiazolo[5,4-d]azepin-6-yl]-cyclopropyl-methanone tartrate] |
| 0.75 | c1cncc(N2CCc3nc(OC4CCN(C5CCC5)CC4)sc3C2)c1 [Example 27, 2-(1-Cyclobutyl-piperidin-4-yloxy)-5-pyridin-3-yl-,6,7-dihydro-4H-thiazolo[5,4-c]pyridine tartrate] |
| 6.96 | O=C(CN1CCCCC1)N1CCc2nc(OC3CCN(C4CCC4)CC3)sc2C1 [Example 18, 1-[2-(1-Cyclobutyl-piperidin-4-yloxy)-6,7-dihydro-4H-thiazolo[5,4-c]pyridin-5-yl]-2-piperidin-1-yl-ethanone tartrate] |
| 12 | O=C(C1CCC1)N1CCc2nc(OC3CCN(C4CC4)CC3)sc2C1 [Example 11, Cyclobutyl-[2-(1-cyclopropyl-piperidin-4-yloxy)-6,7-dihydro-4H-thiazolo[5,4-c]pyridin-5-yl]-methanone tartrate] |
| 21.2 | COc1ccc(C(=O)N2CCc3nc(OC4CCN(C5CCC5)CC4)sc3C2)cc1 [Example 17, [2-(1-Cyclobutyl-piperidin-4-yloxy)-6,7-dihydro-4H-thiazolo[5,4-c]pyridin-5-yl]-(4-methoxy-phenyl)-methanone tartrate] |
| 13.4 | O=C(c1ccccc1F)N1CCc2nc(OC3CCN(C4CCC4)CC3)sc2C1 [Example 6, [2-(1-Cyclobutyl-piperidin-4-yloxy)-6,7-dihydro-4H-thiazolo[5,4-c]pyridin-5-yl]-(2-fluoro-phenyl)-methanone tartrate] |
| 32.5 | O=C(c1cccnc1)N1CCc2nc(OC3CCN(C4CCC4)CC3)sc2C1 [Example 26, [2-(1-Cyclobutyl-piperidin-4-yloxy)-6,7-dihydro-4H-thiazolo[5,4-c]pyridin-5-yl]-pyridin-3-yl-methanone tartrate] |
| 22.6 | CS(=O)(=O)N1CCc2nc(OC3CCN(C4CCC4)CC3)sc2C1 [Example 21, 2-(1-Cyclobutyl-piperidin-4-yloxy)-5-methanesulfonyl-,6,7-dihydro-4H-thiazolo[5,4-c]pyridine] |
| 0.3 | FC(F)(F)c1ccc(N2CCc3nc(OC4CCN(C5CCC5)CC4)sc3C2)cn1 [Example 23, 2-(1-Cyclobutyl-piperidin-4-yloxy)-5-(2-trifluoromethyl-pyridin-5-yl)-,6,7-dihydro-4H-thiazolo[5,4-c]pyridine] |
| 26.7 | CCC(=O)NC1CCc2nc(OC3CCN(C4CCC4)CC3)sc2C1 (stereo not shown) [Example 3, N-[2-(1-Cyclobutyl-piperidin-4-yloxy)-4,5,6,7-tetrahydro-benzothiazol-6-yl]-propionamide] |
| 11.3 | O=C(N1CCOCC1)N1CCc2nc(OC3CCN(C4CCC4)CC3)sc2C1 [Example 29, [2-(1-Cyclobutyl-piperidin-4-yloxy)-6,7-dihydro-4H-thiazolo[5,4-c]pyridin-5-yl]-morpholin-4-yl-methanone tartrate] |
| 12.3 | O=C(CC1CC1)N1CCc2nc(OC3CCN(C4CCC4)CC3)sc2C1 [Example 19, 1-[2-(1-Cyclobutyl-piperidin-4-yloxy)-6,7-dihydro-4H-thiazolo[5,4-c]pyridin-5-yl]-2-cyclopropyl-ethanone] |
| 4.6 | O=C(C1CCCC1)N1CCc2nc(OC3CCN(C4CCC4)CC3)sc2C1 [Example 32, [2-(1-Cyclobutyl-piperidin-4-yloxy)-6,7-dihydro-4H-thiazolo[5,4-c]pyridin-5-yl]-cyclopentyl-methanone tartrate] |
| 1.62 | NC(=O)c1ccc(N2CCc3nc(OC4CCN(C5CCC5)CC4)sc3C2)nc1 [Example 31, 6-[2-(1-Cyclobutyl-piperidin-4-yloxy)-6,7-dihydro-4H-thiazolo[5,4-c]pyridin-5-yl]-nicotinamide] |
| 4.19 | O=C(N1CCCCC1)N1CCc2nc(OC3CCN(C4CCC4)CC3)sc2C1 [Example 30, [2-(1-Cyclobutyl-piperidin-4-yloxy)-6,7-dihydro-4H-thiazolo[5,4-c]pyridin-5-yl]-piperidin-1-yl-methanone hydrochloride] |
| 15.4 | O=C(C1CC1)N1CCCc2nc(OC3CCN(C4CCC4)CC3)sc21 [Example 33, [2-(1-Cyclobutyl-piperidin-4-yloxy)-6,7-dihydro-5H-thiazolo[5,4-b]pyridin-4-yl]-cyclopropyl-methanone tartrate] |
| 7.69 | CC(C)N1CCC(Oc2nc3c(s2)CN(C(=O)C2CCC2)CC3)CC1 [Example 8, Cyclobutyl-[2-(1-isopropyl-piperidin-4-yloxy)-6,7-dihydro-4H-thiazolo[5,4-c]pyridin-5-yl]-methanone] |
| 23.6 | O=C(C1CC1)N1CCCC(Oc2nc3c(s2)CN(C2CCC2)CC3)C1 (stereo not shown) [Example 14, [3-(5-Cyclobutyl-,6,7-dihydro-4H-thiazolo[5,4-c]pyridin-2-yloxy)-piperidin-1-yl]-cyclopropyl-methanone tartrate] |
| 35.3 | O=C(c1ccc(C(F)(F)F)nc1)N1CCc2nc(OC3CCN(C4CCC4)CC3)sc2C1 [Example 25, [2-(1-Cyclobutyl-piperidin-4-yloxy)-6,7-dihydro-4H-thiazolo[5,4-c]pyridin-5-yl]-(2-trifluoromethyl-pyridin-5-yl)-methanone] |
| 9.94 | CC(C)N1CCC(Oc2nc3c(s2)CN(C(=O)C2CC2)CC3)CC1 [Example 9, Cyclopropyl-[2-(1-isopropyl-piperidin-4-yloxy)-6,7-dihydro-4H-thiazolo[5,4-c]pyridin-5-yl]-methanone tartrate] |
| 10.5 | CC(C)CC(=O)N1CCc2nc(OC3CCN(C4CCC4)CC3)sc2C1 [Example 7, 1-[2-(1-Cyclobutyl-piperidin-4-yloxy)-6,7-dihydro-4H-thiazolo[5,4-c]pyridin-5-yl]-3-methyl-butan-1-one tartrate] |
| 33.5 | O=C(c1ccncc1)N1CCc2nc(OC3CCN(C4CCC4)CC3)sc2C1 [Example 16, [2-(1-Cyclobutyl-piperidin-4-yloxy)-6,7-dihydro-4H-thiazolo[5,4-c]pyridin-5-yl]-pyridin-4-yl-methanone tartrate] |
